In the oligonucleotide strings, read from the 5' end, every base follows the letter of its sugar. An asterisk marks phosphorothioate; unmarked linkages are phosphodiester. Other units and linkages are bracketed, terminal groups are in braces. A string of capitals states the bases alone. e = 2'-O-(2-methoxyethyl) (MOE); [5mC] = 5-methylcytosine; d = 2'-deoxy (DNA)
Columns and labels:
[1] = test system: human Factor XI mRNA; assay: Dose-dependent inhibition in HepG2 cells, electroporation (Example 4); type: cell-based; details: 16 hours
Outline: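 HepG2 cells electroporated with 0.7, 2.2, 6.7 or 20 μM antisense gapmer and harvested after ~16 h. Factor XI mRNA quantified by qRT-PCR (primer probe set RTS 2966), normalised to total RNA (RIBOGREEN). Reported as percent inhibition versus untreated control cells.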

[2] = test system: human Factor XI mRNA; assay: Dose-dependent inhibition in HepB3 cells, electroporation (Example 7); type: cell-based; details: approx. 16 h
Protocol: The gapmers were also transfected via electroporation and their dose dependent inhibition of human Factor XI mRNA was measured. Cells were plated at a density of 20,000 cells per well and transfected via electroporation with 41.15 nM, 123.457 nM, 370.37 nM, 1111.11 nM, 3333.33 nM, and 10,000 nM concentrations of antisense oligonucleotide, as specified in Table 15. After a treatment period of approximately 16 hours, RNA was isolated from the cells and human Factor XI mRNA levels were measured by quantitative real-time PCR. Human Factor XI primer probe set RTS 2966 was used to measure mRNA levels. Factor XI mRNA levels were adjusted according to total RNA content, as measured by RIBOGREEN®. Results are presented as percent inhibition of human Factor XI, relative to untreated control cells.

[3] = test system: human Factor XI mRNA; assay: Dose-dependent inhibition in cyno primary hepatocytes, electroporation (Example 6); type: cell-based, cynomolgus monkey; details: approx. 16 h
Protocol: Cells were plated at a density of 35,000 cells per well and transfected via electroporation with 0.74 nM, 2.2 nM, 6.7 nM, 20 nM, 60 nM, and 180 nM concentrations of antisense oligonucleotide, as specified in Table 13. After a treatment period of approximately 16 hours, RNA was isolated from the cells and human Factor XI mRNA levels were measured by quantitative real-time PCR. Human Factor XI primer probe set RTS 2966 was used to measure mRNA levels. Factor XI mRNA levels were adjusted according to total RNA content, as measured by RIBOGREEN®. Results are presented as percent inhibition of human Factor XI, relative to untreated control cells.

[4] = Tolerability in Sprague-Dawley rats: body and organ weight (Example 19); type: in vivo; details: 50 mg/kg s.c. twice per week for 6 weeks, change over weight at start of study
Text: Urine samples were taken before the start of treatment.
The body weights are presented in Table 78 and are expressed as a percent change over the weights taken at the start of the study.

[5] = test system: human Factor XI mRNA; assay: Dose-dependent inhibition in HepG2 cells, lipofectin (Example 4); type: cell-based; details: 16 hours
Outline: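 Read-out was percent inhibition of Factor XI mRNA relative to untreated controls, by qRT-PCR (RTS 2966) adjusted for RIBOGREEN-measured total RNA. Cells received antisense oligonucleotide at 9.375 to 75 nM (four levels) via lipofectin. Treatment lasted approximately 16 hours, with plating at 10,000 cells per well.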

[6] = test system: human Factor XI mRNA; assay: Antisense inhibition in HepG2 cells by microwalk gapmers, 8,000 nM, electroporation (Example 14); type: cell-based; details: HepG2 cells, 8,000 nM
Outline: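 Percent reduction of Factor XI transcript, relative to untreated controls, by real-time PCR with RIBOGREEN normalisation. Readout taken about 24 h after electroporating HepG2 cells with 8,000 nM oligonucleotide. Gapmers are 5-10-5, 5-8-5 or 6-8-6 MOE wings, phosphorothioate backbone.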

| Substance | percent inhibition of Factor XI mRNA, relative to untreated control cells ([1]; 0.7 μM) [%] | percent inhibition of Factor XI mRNA, relative to untreated control cells ([1]; 2.2 μM) [%] | percent inhibition of Factor XI mRNA, relative to untreated control cells ([1]; 6.7 μM) [%] | percent inhibition of Factor XI mRNA, relative to untreated control cells ([1]; 20 μM) [%] | percent inhibition of human Factor XI mRNA ([2]; 41.15 nM) [%] | percent inhibition of human Factor XI mRNA ([2]; 123.457 nM) [%] | percent inhibition of human Factor XI mRNA ([2]; 370.37 nM) [%] | percent inhibition of human Factor XI mRNA ([2]; 1111.11 nM) [%] | percent inhibition of human Factor XI mRNA ([2]; 3333.33 nM) [%] | percent inhibition of human Factor XI mRNA ([2]; 10000 nM) [%] | percent inhibition of human Factor XI mRNA ([3]; 0.74 nM) [%] | percent inhibition of human Factor XI mRNA ([3]; 2.2 nM) [%] | percent inhibition of human Factor XI mRNA ([3]; 6.7 nM) [%] | percent inhibition of human Factor XI mRNA ([3]; 20 nM) [%] | percent inhibition of human Factor XI mRNA ([3]; 60 nM) [%] | percent inhibition of human Factor XI mRNA ([3]; 180 nM) [%] | Percent change in Body weight [4] [%] | percent inhibition of Factor XI mRNA, relative to untreated control cells ([5]; 9.375 nM) [%] | percent inhibition of Factor XI mRNA, relative to untreated control cells ([5]; 18.75 nM) [%] | percent inhibition of Factor XI mRNA, relative to untreated control cells ([5]; 37.5 nM) [%] | also measured |
| --- | --- | --- | --- | --- | --- | --- | --- | --- | --- | --- | --- | --- | --- | --- | --- | --- | --- | --- | --- | --- | --- |
| 416838 (antisense GCAACCGGGATGATGAGTGC; 5-10-5 gapmer, wing sugar chemistry not given here, further chemistry not given here) [compound 416838] | 5 | 30 | 55 | 83 | 12 | 9 | 28 | 40 | 77 | 88 | 0 | 0 | 21 | 34 | 48 | 62 | −23 | 31 | 51 | 64 | percent inhibition of Factor XI mRNA, relative to untreated control cells ([5]; 75 nM): 86% |
| 416925 (antisense GGTGCACAGTTTCTGGCAGG; 3-14-3 chimeric gapmer, wing sugar chemistry not given here, further chemistry not given here) [compound 416925] | 0 | 40 | 76 | 80 | 27 | 39 | 50 | 73 | 88 | 96 | 0 | 9 | 1 | 48 | 55 | 76 | −32 | 13 | 38 | 59 | percent inhibition of Factor XI mRNA, relative to untreated control cells ([5]; 75 nM): 75% |
| 416999 (antisense GCACAGTTTCTGGCAGGCCT; 2-13-5 gapmer, wing sugar chemistry not given here, further chemistry not given here) [compound 416999] | 20 | 42 | 77 | 88 | 31 | 45 | 62 | 78 | 94 | 97 | 3 | 40 | 36 | 62 | 67 | 82 | −37 | 24 | 37 | 55 | percent inhibition of Factor XI mRNA, relative to untreated control cells ([5]; 75 nM): 73% |
| 417002 (antisense GGTGCACAGTTTCTGGCAGG; 2-13-5 gapmer, wing sugar chemistry not given here, further chemistry not given here) [compound 417002] | 32 | 38 | 82 | 91 | 19 | 0 | 31 | 47 | 86 | 93 | 32 | 16 | 28 | 38 | 55 | 71 | −29 | 35 | 52 | 67 | percent inhibition of Factor XI mRNA, relative to untreated control cells ([5]; 75 nM): 70% |
| 417003 (antisense TGGTGCACAGTTTCTGGCAG; 2-13-5 gapmer, wing sugar chemistry not given here, further chemistry not given here) [compound 417003] | 0 | 34 | 75 | 89 | 31 | 0 | 15 | 43 | 84 | 92 | 12 | 18 | 19 | 39 | 58 | 74 | −40 | 26 | 44 | 60 | percent inhibition of Factor XI mRNA, relative to untreated control cells ([5]; 75 nM): 56% |
| 445522 (antisense eG*e[5mC]*eA*e[5mC]*eA*dG*dT*dT*dT*d[5mC]*dT*dG*dG*e[5mC]*eA*eG*eG*e[5mC]) [compound 445522] |  |  |  |  |  |  |  |  |  |  |  |  |  |  |  |  |  |  |  |  | Percent inhibition of human Factor XI mRNA levels [6]: 91% |
| 445531 (antisense eG*eG*e[5mC]*eA*eT*dT*dG*dG*dT*dG*d[5mC]*dA*d[5mC]*eA*eG*eT*eT*eT) [compound 445531] |  |  |  |  |  |  |  |  |  |  |  |  |  |  |  |  |  |  |  |  | Percent inhibition of human Factor XI mRNA levels [6]: 90% |

From patent publication US20120083522A1, “MODULATION OF INFLAMMATORY RESPONSES BY FACTOR XI” (Isis Pharmaceuitcals, inc., priority 2009, published 2012)
